Experimental data published in patent US8557516B2, “AKT tyrosine 176 phosphorylation cancer biomarker” (H. Lee Moffitt Cancer Center and Research Institute, Inc., priority 2009, dated 2013).

System: AKT Tyr176-phosphorylation
Experiment: Cell fractionation and immunoblotting of pTyr176-AKT in MCF-7 cells
Assay type: cell-based, human
Conditions: MCF-7 cells serum starved 24 h; insulin 50 ng/ml or heregulin 30 ng/ml
Procedure: (§1) FIG. 27 is a blot showing Tyr176-phosphorylation regulates AKT plasma membrane localization. MCF-7 cells were serum starved (24 h) and treated with insulin (50 ng/ml) or for indicated times. Cell lysates were fractionated and IB with the indicated antibodies. Input panels pAck1 (Tyr), pIR(Tyr) and pHER-2(Tyr) represents IP with respective antibodies followed by IB with pTyr antibodies.
as §1, with “28” for “27”, “(C) heregulin (30” for “with insulin (50”, “ng/ml)” for “ng/ml) or”
FIG. 29 is a blot showing Tyr176-phosphorylation regulates AKT plasma membrane localization. MCF7 cells were transfected with control or Ack1-specific siRNAs (40 nM) for 48 h and treated with heregulin for 40 mins. Cell lysates were fractionated and IB with indicated antibodies.
FIG. 34 is a blot showing Tyr176-phosphorylation of AKT is PI3K-independent. MCF-7 cells were pretreated with LY294002 (10 μM, 1 h) followed by heregulin for 40 mins. Cell lysates were fractionated and membrane fraction was subjected to IB with indicated antibodies.
Cell fractionation, immunoprecipitations and kinase assay. […]

Row | Substance | time of optimal AKT Tyr-176 phosphorylation and plasma membrane accumulation
1 | insulin: growth factor ligand used to stimulate cells | 30 min
2 | heregulin | 40 min
